Assay results from patent publication US20050113334A1, “COMPOSITION AND METHOD” (priority 2003, published 2005).

System: Desulfovibrio spp.
Experiment: In vitro fermentation of fibers with canine fecal inoculum, FISH enumeration
Type: cell-based
Conditions: 39° C.; for Numbers of Desulfovibrio spp., LOG10 CFU AT 8 HOUR: after 8 hour incubation
Description: Fermentation vessels containing anaerobic phosphate buffered medium were prepared and 1 ml canine fecal inoculum (10% w/v fecal sample to buffer) added. The composition of the media was as described in Sunvold G D, Hussein H S, Fahey G C, Merchen N R, and Reinhart G A (1995), In vitro fermentation of selected fiber sources by dogs fecal inoculum and in vivo digestion and metabolism of fiber supplemental diets. J. Animal Sci. 73:1099-1109 (1995). Fermentations were carried out at 39° C. Experiments were conducted in a blind-coded manner with different fibers. […] An aliquot of this was prepared for FISH. […] Genus specific 16SrRNA-targeted probes were synthesized and monolabelled at the 5″ end with fluorescent dye to detect bacteria of interest in the fermentation media. Total nucleic acid was stained to obtain total microbial counts.

## Arabinogalactan
  Numbers of Desulfovibrio spp., Log10 CFU AT 0 HOUR: 7.5 ± 0.3 log cfu/ml of fecal inoculum
  Numbers of Desulfovibrio spp., LOG10 CFU AT 8 HOUR: 6.4 ± 1.0 log cfu/ml of fecal inoculum

## Fructooligosaccharide
  Numbers of Desulfovibrio spp., Log10 CFU AT 0 HOUR: 6.9 ± 1.0 log cfu/ml of fecal inoculum
  Numbers of Desulfovibrio spp., LOG10 CFU AT 8 HOUR: 6.3 ± 0.8 log cfu/ml of fecal inoculum

## Galacto-oligosaccharide
  Numbers of Desulfovibrio spp., Log10 CFU AT 0 HOUR: 7.0 ± 1.0 log cfu/ml of fecal inoculum
  Numbers of Desulfovibrio spp., LOG10 CFU AT 8 HOUR: 6.8 ± 0.9 log cfu/ml of fecal inoculum

## Inulin
  Numbers of Desulfovibrio spp., Log10 CFU AT 0 HOUR: 7.3 ± 0.2 log cfu/ml of fecal inoculum
  Numbers of Desulfovibrio spp., LOG10 CFU AT 8 HOUR: 6.4 ± 1.0 log cfu/ml of fecal inoculum

## Xylooligosaccharide
  Numbers of Desulfovibrio spp., Log10 CFU AT 0 HOUR: 7.2 ± 0.4 log cfu/ml of fecal inoculum
  Numbers of Desulfovibrio spp., LOG10 CFU AT 8 HOUR: 6.8 ± 0.9 log cfu/ml of fecal inoculum
